Assay results from patent publication US11142527B2, “Dihydropyrimidine compounds and uses thereof in medicine” (SUNSHINE LAKE PHARMA CO., LTD., priority 2017, dated 2021).
pEC50: −log10 of the molar value.

These molecules were tested on HBV (assay: Test of anti HBV activity in vitro (viral DNA by qPCR)). Details: Hepatitis B virus; HepG2.2.15 cells, viral DNA in cell culture supernatant by qPCR; read-out: EC50 values of the compound of the invention on viral replication.
Assay type: cell-based
Description: Test 1: Test Method of Calculating Anti HBV EC50
HBV Cell Line and Culture Conditions
HepG2.2.15 (SELLS, PNAS, 1987 and SELLS, JV, 1988) chromosomes have an integrated complete HBV genome, and stably express viral RNA and viral protein. HepG2.2.15 cells can secrete mature HBV particles, HBsAg and HBeAg, to medium. HepG2.2.15 cells were cultured in DMEM containing 10% fetal bovine serum, 100 U/mL penicillin, 100 U/mL streptomycin, 1% non essential amino acid, 1 mM sodium pyruvate and 300 μg/mL G418.
Viral particles DNA secreted from HepG2.2.15 cells can be quantified by qPCR, and the effect of the compound on viral replication can be detected.
Test of Anti HBV Activity In Vitro
8000 HepG 2.2.15 cells per well were seeded into a 96-well plate, the plate was cultured at 37° C. and 5% CO2 for 3 days till the cells grew to full wells. Old liquid medium can be removed and replaced with new medium (200 μL) on day 0.
Formulating the compound and treating the cells in the experiment of anti virus: the compound was dissolved in DMSO to a concentration of 30 mM, and then the compound solution was diluted with DMSO to a concentration of 800 μM, and then eight dilutions at 4 fold were performed, the highest concentration is 800 μM. The serial diluted compound was added to the above plate at 1 μL per well, the highest final concentration in the experiment is 4 μM (200 fold dilution). TDF (tenofovir dipiroxil fumarate, Selleck, Cat S1400) has a highest concentration of 4 μM as a positive control. 1 μL of DMSO was added in to the […] at a final concentration of 0.5%, TDF was added in to the […] at a final concentration of 1 μM.
Detection of Viral Genomic DNA by aPCR
Primer: HBV-For-202, […]; HBV-Rev-315, […]. Copies of virus can be calculated using a standard curve plotted by using plasmid containing HBV genome and using SYBR Premix Ex Taq II—Takara DRR081S kit and 1 μL cell culture supernatant as a template. EC50 values of the compound on viral replication were calculated by a four parametric nonlinear regression model using Graphpad Prism 5 software to manage concentration—viral copy number.

Structure (SMILES) | pEC50
COC(=O)C1=C(CN2CCN3C(=O)N(CC#Cc4ccc(C(N)=O)cc4)C[C@@H]3C2)NC(c2nccs2)=N[C@H]1c1ccc(F)cc1Cl [Example 39, (R)-methyl 6-(((S)-2-(3-(4-carbamoylphenyl)prop-2-yn-1-yl)-3-oxohexahydroimidazo[1,5-a]pyrazin-7(1H)-yl)methyl)-4-(2-chloro-4-fluorophenyl)-2-(thiazol-2-yl)-1,4-dihydropyrimidine-5-carboxylate] | 8.18
CONC(=O)c1ccc(C#CCN2C[C@@H]3CN(CC4=C(C(=O)OC)[C@H](c5ccc(F)cc5Cl)N=C(c5nccs5)N4)CCN3C2=O)cc1 [Example 40, (R)-methyl 4-(2-chloro-4-fluorophenyl)-6-(((S)-2-(3-(4-(methoxycarbamoyl)phenyl)prop-2-yn-1-yl)-3-oxohexahydroimidazo[1,5-a]pyrazin-7(1H)-yl)methyl)-2-(thiazol-2-yl)-1,4-dihydropyrimidine-5-carboxylate] | 8.09
COC(=O)C1=C(CN2CCN3C(=O)N(CC#Cc4ccc(OC)cc4)C[C@@H]3C2)NC(c2nccs2)=N[C@H]1c1ccc(F)cc1Cl [Example 45, (R)-methyl 4-(2-chloro-4-fluorophenyl)-6-(((S)-2-(3-(4-methoxyphenyl)prop-2-yn-1-yl)-3-oxohexahydroimidazo[1,5-a]pyrazin-7(1H)-yl)methyl)-2-(thiazol-2-yl)-1,4-dihydropyrimidine-5-carboxylate] | 7.84
COC(=O)C1=C(CN2CCN3C(=O)N(CC#Cc4ccc(C(=O)O)c(OC)c4)C[C@@H]3C2)NC(c2nccs2)=N[C@H]1c1ccc(F)cc1Cl [Example 52, 4-(3-((S)-7-(((R)-6-(2-chloro-4-fluorophenyl)-5-(methoxycarbonyl)-2-(thiazol-2-yl)-3,6-dihydropyrimidin-4-yl)methyl)-3-oxohexahydroimidazo[1,5-a]pyrazin-2(3H)-yl)prop-1-yn-1-yl)-2-methoxybenzoic acid] | 7.38
COC(=O)C1=C(CN2CCN3C(=O)N(CC#Cc4ccc(C(=O)O)cc4OC)C[C@@H]3C2)NC(c2nccs2)=N[C@H]1c1ccc(F)cc1Cl [Example 53, 4-(3-((S)-7-(((R)-6-(2-chloro-4-fluorophenyl)-5-(methoxycarbonyl)-2-(thiazol-2-yl)-3,6-dihydropyrimidin-4-yl)methyl)-3-oxohexahydroimidazo[1,5-a]pyrazin-2(3H)-yl)prop-1-yn-1-yl)-3-methoxybenzoic acid] | 7.47
COC(=O)C1=C(CN2CCN3C(=O)N(c4ccc(N5CCOC(CC(=O)O)C5)cc4)C[C@@H]3C2)NC(c2nccs2)=N[C@H]1c1ccc(F)cc1Cl (stereo partly drawn) [Example 76, 2-(4-(4-((S)-7-(((R)-6-(2-chloro-4-fluorophenyl)-5-(methoxycarbonyl)-2-(thiazol-2-yl)-3,6-dihydropyrimidin-4-yl)methyl)-3-oxohexahydroimidazo[1,5-a]pyrazin-2(3H)-yl)phenyl)morpholin-2-yl)acetic acid] | 8.27
COC(=O)C1=C(CN2CCN3C(=O)N(c4ccc(Oc5ccc(C(=O)O)cn5)cc4)C[C@@H]3C2)NC(c2nccs2)=N[C@H]1c1ccc(F)cc1Cl [Example 78, 6-(4-((S)-7-(((R)-6-(2-chloro-4-fluorophenyl)-5-(methoxycarbonyl)-2-(thiazol-2-yl)-3,6-dihydropyrimidin-4-yl)methyl)-3-oxohexahydroimidazo[1,5-a]pyrazin-2(3H)-yl)phenoxy)nicotinic acid] | 7.41
COC(=O)C1=C(CN2CCN3C(=O)N(c4ccc(Oc5ccc(CCC(=O)O)cc5F)cc4F)C[C@@H]3C2)NC(c2nccs2)=N[C@H]1c1ccc(F)cc1Cl [Example 101, 3-(4-(4-((S)-7-(((R)-6-(2-chloro-4-fluorophenyl)-5-(methoxycarbonyl)-2-(thiazol-2-yl)-3,6-dihydropyrimidin-4-yl)methyl)-3-oxohexahydroimidazo[1,5-a]pyrazin-2(3H)-yl)-3-fluorophenoxy)-3-fluorophenyl)propanoic acid] | 7.83
COC(=O)C1=C(CN2CCN3C(=O)N(c4ccc(-c5cnc(C)[nH]5)cc4)C[C@@H]3C2)NC(c2nccs2)=N[C@H]1c1ccc(F)cc1Cl [Example 107, (R)-methyl 4-(2-chloro-4-fluorophenyl)-6-(((S)-2-(4-(2-methyl-1H-imidazol-5-yl)phenyl)-3-oxohexahydroimidazo[1,5-a]pyrazin-7(1H)-yl)methyl)-2-(thiazol-2-yl)-1,4-dihydropyrimidine-5-carboxylate] | 8.19
COC(=O)C1=C(CN2CCN3C(=O)N(c4ccc5[nH]c(C6CCCN6C)nc5c4)C[C@@H]3C2)NC(c2nccs2)=N[C@H]1c1ccc(F)cc1Cl (stereo partly drawn) [Example 108, (4R)-methyl 4-(2-chloro-4-fluorophenyl)-6-(((8aS)-2-(2-(1-methylpyrrolidin-2-yl)-1H-benzo[d]imidazol-5-yl)-3-oxohexahydroimidazo[1,5-a]pyrazin-7(1H)-yl)methyl)-2-(thiazol-2-yl)-1,4-dihydropyrimidine-5-carboxylate] | 8.17
CCc1c[nH]c(-c2ccc(N3C[C@@H]4CN(CC5=C(C(=O)OC)[C@H](c6ccc(F)cc6Cl)N=C(c6nccs6)N5)CCN4C3=O)cc2)n1 [Example 109, (R)-methyl 4-(2-chloro-4-fluorophenyl)-6-(((S)-2-(4-(4-ethyl-1H-imidazol-2-yl)phenyl)-3-oxohexahydroimidazo[1,5-a]pyrazin-7(1H)-yl)methyl)-2-(thiazol-2-yl)-1,4-dihydropyrimidine-5-carboxylate] | 7.91
COC(=O)C1=C(CN2CCN3C(=O)N(c4ccc(-c5nc(C6CCCCC6)c[nH]5)cc4)C[C@@H]3C2)NC(c2nccs2)=N[C@H]1c1ccc(F)cc1Cl [Example 110, (R)-methyl 4-(2-chloro-4-fluorophenyl)-6-(((S)-2-(4-(5-cyclohexyl-1H-imidazol-2-yl)phenyl)-3-oxohexahydroimidazo[1,5-a]pyrazin-7(1H)-yl)methyl)-2-(thiazol-2-yl)-1,4-dihydropyrimidine-5-carboxylate] | 7.52
COC(=O)C1=C(CN2CCN3C(=O)N(c4ccc(-c5ccc(C(=O)O)cc5)cc4F)C[C@@H]3C2)NC(c2nccs2)=N[C@H]1c1ccc(F)cc1Cl [Example 113, 4′-((S)-7-(((R)-6-(2-chloro-4-fluorophenyl)-5-(methoxycarbonyl)-2-(thiazol-2-yl)-3,6-dihydropyrimidin-4-yl)methyl)-3-oxohexahydroimidazo[1,5-a]pyrazin-2(3H)-yl)-3′-fluoro-[1,1′-biphenyl]-4-carboxylic acid] | 7.62
COC(=O)C1=C(CN2CCN3C(=O)N(c4ccc(-c5ccc(C(=O)O)cc5F)cc4)C[C@@H]3C2)NC(c2nccs2)=N[C@H]1c1ccc(F)cc1Cl [Example 115, 4′-((S)-7-(((R)-6-(2-chloro-4-fluorophenyl)-5-(methoxycarbonyl)-2-(thiazol-2-yl)-3,6-dihydropyrimidin-4-yl)methyl)-3-oxohexahydroimidazo[1,5-a]pyrazin-2(3H)-yl)-2-fluoro-[1,1′-biphenyl]-4-carboxylic acid] | 7.76
COC(=O)C1=C(CN2CCN3C(=O)N(c4ccc(-c5ccc(C(=O)O)cc5F)cc4F)C[C@@H]3C2)NC(c2nccs2)=N[C@H]1c1ccc(F)cc1Cl [Example 120] | 7.59
